In patent US7632830B2, “Lactam compounds and pharmaceutical use thereof” (Ajinomoto Co., Inc., priority 2000, dated 2009):
Converted amounts (≈) assume the structure as drawn.

System: adipose cells of rats
Assay: Evaluation of the sugar-transporting activity (2-[14C(U)]-deoxy-D-glucose incorporation)
Type: cell-based
Details: rat adipose cells
Description: After the decapitation and venesection of 6 male Wistar rats (body weight: 150 to 200 g), an incision was made in the abdomen of each rat to extract 6 g in total of epididymal adipose tissues. The tissues were finely cut into 2 mm×2 mm pieces in 6 ml of KRH (Krebs-Ringer Hepes, composition: 130 mM of sodium chloride, 4.7 mM of potassium chloride, 1.2 mM of potassium dihydrogenphosphate, 1.2 mM of magnesium sulfate, 1 mM of calcium chloride and 25 mM of Hepes, pH=7.6) containing 5% of BSA (bovine serum albumin). 24 mg of collagenase (type I) was added thereto and the digestion treatment was conducted for about 40 minutes to obtain about 6 ml of isolated adipose cells. The collagenase was removed by the buffer exchange. 2% BSA/KRH solution was added to the residue for the re-suspension to obtain 45 ml of an adipose cell suspension.
The sugar-transporting activity of the compounds of the present invention was evaluated with reference to a method described in a literature [Annual Review of Biochemistry, Vol. 55, p. 1059 (1986)]. In the test, 200 μl of the adipose cell suspension was poured in each polystyrene test tube, 100 μl of the solution of the test substance (by dilution of 10 mg/ml substance dimethyl sulfoxide solution with KRH) was added thereto, and the obtained mixture was shaken and then cultured at 37° C. for 30 minutes.
The sugar-transporting activity was evaluated by measuring the quantity of 2-[^14C(U)]-deoxy-D-glucose incorporated per a unit time. Namely, 2-[^14C(U)]-deoxy-D-glucose was added to the adipose cell suspension after the pre-culture (the final concentration: 0.5 μCi/sample). 5 minutes after, cytochalasin B (final concentration: 10 μM) was added to the mixture to terminate the sugar transportation. After forming a dinonyl phthalate layer, the obtained mixture was centrifuged to separate the adipose cells from the buffer. The quantity of 2-[^14C(U)]-deoxy-D-glucose contained in the adipose cell layer was determined with a liquid scintillation counter to determine the quantity of the incorporated sugar. In this evaluation system, when insulin (100 nM) having the effect of increasing the sugar transportation was used, the effect was about 7 times as high as that obtained in the insulin-free control group.
The results of the evaluation of the sugar-transporting activity obtained by using 100 μg/ml of each compound of the present invention are shown in Table 6. The sugar transporting activity in Table 6 was evaluated on the basis of the reinforcing effect of insulin (100 nM). […] The symbols in Table 6 are as follows: • No: Example No., and • A: sugar transporting activity.
The results of the evaluation of the sugar-transporting activity obtained by using each compound of the present invention are shown in Table 7. The sugar transporting activity in Table 7 was determined in terms of the concentration (EC50: μg/ml) of a test compound, having a reinforcing effect corresponding to 50% on the basis of the reinforcing effect of insulin having a reinforcing effect of 100%.

[1] = concentration having a reinforcing effect corresponding to 50% of the reinforcing effect of insulin (100%)

| Molecule | A: sugar transporting activity (EC50) [1] [µg/mL] | further results |
| --- | --- | --- |
| COCC(=O)N1[C@@H]2CCCC[C@H]2NC2=C(C(=O)NC2)[C@H]1c1ccccc1C [Example 122] | 6 | – |
| CC(=O)N1[C@@H]2CCCC[C@H]2NC2=C(C(=O)NC2)[C@H]1c1ccccc1C [Example 123] | 5 | – |
| CCOC(=O)N1[C@@H]2CCCC[C@H]2NC2=C(C(=O)NC2)[C@H]1c1ccccc1C [Example 124] | 7 | – |
| CCCC(=O)N1[C@@H]2CCCC[C@H]2NC2=C(C(=O)NC2)[C@H]1c1ccccc1CC [Example 126] | 5 | – |
| CCC(=O)N1[C@@H]2CCCC[C@H]2NC2=C(C(=O)NC2)[C@H]1c1ccccc1CC [Example 127] | 2.2 | – |
| CCOCC(=O)N1[C@@H]2CCCC[C@H]2NC2=C(C(=O)NC2)[C@H]1c1ccccc1CC [Example 129] | 5.4 | – |
| CCc1ccccc1[C@@H]1C2=C(CNC2=O)N[C@@H]2CCCC[C@H]2N1C(=O)COC [Example 130] | 6 | – |
| CCc1ccccc1[C@@H]1C2=C(CNC2=O)N[C@@H]2CCCC[C@H]2N1C(C)=O [Example 131] | 4 | – |
| CCc1ccccc1[C@@H]1C2=C(CNC2=O)N[C@@H]2CCCC[C@H]2N1C(=O)OC [Example 132] | 4 | – |
| O=C1NCC2=C1[C@@H](c1ccccc1Br)N(C(=O)CC(F)(F)F)[C@@H]1CCCC[C@H]1N2 [Example 134] | 0.5 | – |
| CCC(=O)N1[C@@H]2CCCC[C@H]2NC2=C(C(=O)NC2)[C@H]1c1ccccc1Br [Example 135] | 1.5 | – |
| COC(=O)CC(=O)N1[C@@H]2CCCC[C@H]2NC2=C(C(=O)NC2)[C@H]1c1ccccc1Br [Example 136] | 1.5 | – |
| CCOCC(=O)N1[C@@H]2CCCC[C@H]2NC2=C(C(=O)NC2)[C@H]1c1ccccc1Br [Example 137] | 8.6 | – |
| COCC(=O)N1[C@@H]2CCCC[C@H]2NC2=C(C(=O)NC2)[C@H]1c1ccccc1Br [Example 138] | 6 | – |
| CC(=O)N1[C@@H]2CCCC[C@H]2NC2=C(C(=O)NC2)[C@H]1c1ccccc1Br [Example 139] | 6 | – |
| CCC(=O)N1[C@@H]2CCCC[C@H]2NC2=C(C(=O)NC2)[C@H]1c1ccccc1Cl [Example 141] | 3 | – |
| CCCC(=O)N1[C@@H]2CCCC[C@H]2NC2=C(C(=O)NC2)[C@H]1c1ccccc1Cl [Example 142] | 4 | – |
| O=C1NCC2=C1[C@@H](c1ccccc1Cl)N(C(=O)CC(F)(F)F)[C@@H]1CCCC[C@H]1N2 [Example 143] | 0.5 | – |
| COCC(=O)N1[C@@H]2CCCC[C@H]2NC2=C(C(=O)NC2)[C@H]1c1ccccc1Cl [Example 144] | 5 | – |
| CCOCC(=O)N1[C@@H]2CCCC[C@H]2NC2=C(C(=O)NC2)[C@H]1c1ccccc1Cl [Example 145] | 10.7 | – |
| COC(=O)CC(=O)N1[C@@H]2CCCC[C@H]2NC2=C(C(=O)NC2)[C@H]1c1ccccc1Cl [Example 146] | 2 | – |
| COC(=O)N1[C@@H]2CCCC[C@H]2NC2=C(C(=O)NC2)[C@H]1c1ccccc1Cl [Example 147] | 2.4 | – |
| CCC(=O)N1[C@@H]2CCCC[C@H]2NC2=C(C(=O)NC2)[C@H]1c1ccccc1F [Example 149] | 2 | – |

| Molecule | A: sugar transporting activity (EC50) [1] [µg/mL] | further results |
| --- | --- | --- |
| CCOCC(=O)N1[C@@H]2CCCC[C@H]2NC2=C(C(=O)NC2)[C@H]1c1ccccc1F [Example 150] | 2 | – |
| COC(=O)N1[C@@H]2CCCC[C@H]2NC2=C(C(=O)NC2)[C@H]1c1ccccc1F [Example 151] | 2 | – |
| CCC(=O)N1[C@@H]2CCCC[C@H]2NC2=C(C(=O)NC2)[C@H]1c1ccccc1 [Example 154] | 1.5 | – |
| CCOCC(=O)N1[C@@H]2CCCC[C@H]2NC2=C(C(=O)NC2)[C@H]1c1ccccc1 [Example 155] | 2.7 | – |
| COC(=O)N1[C@@H]2CCCC[C@H]2NC2=C(C(=O)NC2)[C@H]1c1ccccc1 [Example 156] | 2 | – |
| CC(=O)N1[C@@H]2CCCC[C@H]2NC2=C(C(=O)NC2)[C@H]1c1ccccc1N [Example 158] | 12 | – |
| COc1ccc([C@@H]2C3=C(CNC3=O)N[C@@H]3CCCC[C@H]3N2C(C)=O)cc1 [Example 160] | 4.4 | – |
| CC(=O)N1[C@@H]2CCCC[C@H]2NC2=C(C(=O)NC2)[C@H]1c1ccc(Br)cc1 [Example 161] | 17 | – |
| CCOCC(=O)N1[C@@H]2CCCC[C@H]2NC2=C(C(=O)NC2)[C@H]1c1ccc(Cl)cc1 [Example 163] | 6 | – |
| CSc1ccccc1[C@@H]1C2=C(CNC2=O)N[C@@H]2CCCC[C@H]2N1C(=O)CO [Example 164] | 2 | – |
| COc1ccccc1[C@@H]1C2=C(CNC2=O)N[C@@H]2CCCC[C@H]2N1C(=O)CCc1ncco1 [Example 166] | 0.064 | – |
| CCOc1ccccc1[C@@H]1C2=C(CNC2=O)N[C@@H]2CCCC[C@H]2N1C(=O)CCc1ncco1 [Example 167] | 0.10 | – |
| CSc1ccccc1[C@@H]1C2=C(CNC2=O)N[C@@H]2CCCC[C@H]2N1C(=O)CCc1ncco1 [Example 168] | 0.070 | – |
| O=C1NCC2=C1[C@@H](c1ccccc1OC(F)(F)F)N(C(=O)CCc1nccs1)[C@@H]1CCCC[C@H]1N2 [Example 171] | 0.070 | – |
| CCOc1ccccc1[C@@H]1C2=C(CNC2=O)N[C@@H]2CCCC[C@H]2N1C(=O)CCc1nccs1 [Example 172] | 0.060 | – |
| CSc1ccccc1[C@@H]1C2=C(CNC2=O)N[C@@H]2CCCC[C@H]2N1C(=O)CCc1nccs1 [Example 173] | 0.060 | – |
| COc1ccccc1[C@@H]1C2=C(CNC2=O)N[C@@H]2CCCC[C@H]2N1C(=O)CCc1ncc(C)s1 [Example 174] | 0.050 | – |
| Cc1ccccc1[C@@H]1C2=C(CNC2=O)N[C@@H]2CCCC[C@H]2N1C(=O)CCc1ccccn1 [Example 175] | 0.020 | – |
| COc1ccccc1[C@@H]1C2=C(CNC2=O)N[C@@H]2CCCC[C@H]2N1C(=O)CCc1ccccn1 [Example 176] | 0.021 | – |
| COc1ccccc1[C@@H]1C2=C(CNC2=O)N[C@@H]2CCCC[C@H]2N1C(=O)CCc1ncccn1 [Example 177] | 0.10 | – |
| CC(=O)N1[C@@H]2CCCC[C@H]2NC2=C(C(=O)NC2)[C@H]1c1ccc(Br)s1 [Example 180] | – | EC50 [1]: 19 µg/mL (≈ 46.3 µM) |
| insulin: insulin (100 nM) having the effect of increasing the sugar transportation; reference for the reinforcing effect [reference compound] | – | effect of increasing the sugar transportation relative to insulin-free control group (insulin 100 nM): about 7 times |
